# Results reported in publication PMC9323733, “Efficacy of Vafidemstat in Experimental Autoimmune Encephalomyelitis Highlights the KDM1A/RCOR1/HDAC Epigenetic Axis in Multiple Sclerosis” (Pharmaceutics, 2022).
# Columns and labels:
# [1] = system: SMI-32 positive motoneurons in spinal cord explants; assay: Spinal cord organotypic cultures, chronic excitotoxicity (THA); type: cell-based, rat; conditions: ORY-2001 5, 25 and 125 nM, THA 100 µM
# Description: Lumbar spinal cords were aseptically obtained from 8-day-old Sprague-Dawley rat pups previously euthanized by pentobarbital overdose. The tissue was placed in ice-cold high glucose containing (6.4 mg/mL) Gey’s Balanced Salt Solution (GBSS). Meninges and roots were removed, and the spinal cord was transversely sectioned into 350 µm thick slices with a McIlwain Tissue Chopper. Four slices were carefully transferred onto 30-mm-diameter Millicell-CM membranes (0.4 µm, Millipore, Billerica, MA, USA) into a 6-well plate (35-mm-diameter, Falcon) containing 1 mL of incubation medium [50% (v/v) minimal essential medium (MEM), 25 mM Hepes, 25% (v/v) heat- inactivated horse serum, 2 mM glutamine and 25% (v/v) Hank’s Balanced Salt Solution (HBSS) supplemented with 25.6 mg/mL glucose; pH 7.2. Cultures were allowed to stabilize for 1 week at 37 °C in a 5% CO2/95% air humidified environment, and thereafter medium was changed twice per week. After 7 days of the explant culture, chronic glutamate excitotoxicity was induced by exposure at DL-threo-β-hydroxyaspartic acid (THA; 100 µM; Sigma-Aldrich, Saint Louis, MO, USA). […] Motoneurons, identified by SMI-32 immunostaining and localization in the ventral horn, were counted by using the Cell Counter plugin of ImageJ software. A minimum of 12 sections were evaluated for each experimental condition.
# lymphocytes = assay: GLP toxicological studies, lymphocyte count, rats; type: in vivo, Wistar rats; conditions: mean ± SD
# From the text: T r eat m e nt N Ly m p h o c y te s Equivalent m ou se d o se
# ( mg /k g p. o. ga va g e) (109/ L ) ( mg /k g p.o ga va ge)
# 6 m ont h s W i sta r r at s
# 9 m ont h s Be ag le d og s
# Eff ec t of t r ea t me nt wi t h O RY-2 00 1 a d mi ni st e r e d by or al ga va ge o n l y m ph oc yt e s ob se r ve d i n G LP
# t ox i c ol ogi c a l st udi e s i n r at a nd do g. A ni ma l s we r e t re a t e d or al l y (fi ve c o ns e c ut i ve da ys/ we e k) by ga va ge
# 28 da ys or 6 mo nt hs ( ra t s) a nd 28 da ys or 9 mo nt hs (dogs). Data re prese nt de me a n ± S D. T he e q ui va l e n t
# dos e i n m o use i s i n di c at e d. 1-wa y A N OV A a n d D u n ne t t’ s M ul ti pl e C o m pa ri so n t e st wa s use d.
# [2] = Drug exposure in male and female animals; type: in vivo; conditions: mice and rats
# From the text: Sex and Gender in this Research
# Multiple sclerosis (MS) is more prevalent in women than men, but male patients develop more severe clinical symptoms and deteriorate faster than female patients. With respect to the animal models for MS used in this research, t he following aspects were considered: […]
# and rats, which were not deemed relevant for this research. Previous efficacy studies in the […]
# animals usedand perfo rm separate studies for male an female mice in MS models.
# MOG35-55 induced EAE in C57BL/6 mice:
# No differences have been observed in disease incidence or severity between sexes in MOG35-55 induced EAE in C57BL/6 mice in a study by Papenfuss et al. (J Neuroimmunol, 2004;150(1-2):59-69, therefore it was not deemed justified to increase the number of animals used in the studies to study males and females independently in the experiments reported in this […]
# Although a higher incidence and severity has been reported for male than female SJL mice in the TMEV model (Alley et al. Exp Neurol, 2003 Mar;180(1):14-24), females are used in mo st studies because the strain of SJL male mice are very aggressive and display a high level of dominance and inflict wounds to their housemates. […]
# Hypothetical sexual dimorphism in spinal cord organotypic cultures and chr onic excitotoxicity treatment derived from 8 day old Sprague-Dawley male or female pups was not assessed. […]
# [3] = system: patients and healthy volunteers; conditions: cited from earlier work
smiles,measurement,setting,value
Nc1nnc(CN[C@@H]2C[C@H]2c2ccc(OCc3ccccc3)cc2)o1 [ORY-2001],protection of motoneurons compared with riluzole (5 µM),[1],outperformed the effect exerted by riluzole
same,survival of SMI32 positive motoneurons challenged with THA,[1]; to 28 DIV,protected the motoneurons from chronic excitotoxic stress at all doses tested
same,Lymphocytes,"lymphocytes; 6 months Wistar rats, 0.07 mg/kg p.o. gavage (equivalent mouse dose 0.14)",3.25 ± 0.75 109/L
same,Lymphocytes,"lymphocytes; 6 months Wistar rats, 0.20 mg/kg p.o. gavage (equivalent mouse dose 0.40)",4.02 ± 0.99 109/L
same,Lymphocytes,"lymphocytes; 6 months Wistar rats, 0.40 mg/kg p.o. gavage (equivalent mouse dose 0.80)",3.72 ± 1.12 109/L
same,Lymphocytes,"lymphocytes; 28 d Wistar rats, 0.07 mg/kg p.o. gavage (equivalent mouse dose 0.14)",3.65 ± 1.39 109/L
same,Lymphocytes,"lymphocytes; 28 d Wistar rats, 0.20 mg/kg p.o. gavage (equivalent mouse dose 0.40)",3.44 ± 0.62 109/L
same,Lymphocytes,"lymphocytes; 28 d Wistar rats, 0.60 mg/kg p.o. gavage (equivalent mouse dose 1.20)",3.89 ± 1.14 109/L
same,difference of exposure between male and female animals,[2],Minor differences
same,YKL40 levels in patients,"[3]; AD Phase II trial ETHERAL, relative to placebo",significantly reduced relative to placebo
same,aggression,"[3]; BPD, ADHD, ASD and moderate-severe AD, Phase IIa REIMAGINE and REIMAGINE-AD",significantly reduced aggression
same,safety in humans,[3]; more than 300 subjects in multiple studies,has been shown to be safe
same,"safety and tolerability, long-term treatment","[3]; relapse-remitting and secondary progressive MS, SATEEN",safe and well tolerated
